Columns and labels:
Mss51 [1] = molecular target: Mss51 (Saccharomyces cerevisiae, UniProt P32335, C85S); assay: difference UV-visible spectroscopy titration; type: binding
Mss51 [2] = molecular target: T1, Mss51 (Saccharomyces cerevisiae, UniProt P32335); assay: difference UV-visible spectroscopy titration; type: binding
T1 sequence (P32335 1-436): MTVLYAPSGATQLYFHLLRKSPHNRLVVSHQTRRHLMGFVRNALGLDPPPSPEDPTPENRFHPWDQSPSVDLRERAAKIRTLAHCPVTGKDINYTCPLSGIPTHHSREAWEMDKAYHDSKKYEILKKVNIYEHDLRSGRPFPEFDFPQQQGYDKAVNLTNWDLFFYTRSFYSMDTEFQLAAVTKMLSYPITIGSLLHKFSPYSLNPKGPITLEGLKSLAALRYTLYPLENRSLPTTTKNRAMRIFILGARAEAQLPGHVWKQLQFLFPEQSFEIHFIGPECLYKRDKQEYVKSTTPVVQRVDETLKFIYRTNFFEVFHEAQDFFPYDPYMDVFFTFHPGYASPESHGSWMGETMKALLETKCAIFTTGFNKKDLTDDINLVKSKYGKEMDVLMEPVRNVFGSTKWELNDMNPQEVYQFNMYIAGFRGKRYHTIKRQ

Sequence of Mss51 (Saccharomyces cerevisiae, UniProt P32335, C85S) (P32335 whole entry C85S): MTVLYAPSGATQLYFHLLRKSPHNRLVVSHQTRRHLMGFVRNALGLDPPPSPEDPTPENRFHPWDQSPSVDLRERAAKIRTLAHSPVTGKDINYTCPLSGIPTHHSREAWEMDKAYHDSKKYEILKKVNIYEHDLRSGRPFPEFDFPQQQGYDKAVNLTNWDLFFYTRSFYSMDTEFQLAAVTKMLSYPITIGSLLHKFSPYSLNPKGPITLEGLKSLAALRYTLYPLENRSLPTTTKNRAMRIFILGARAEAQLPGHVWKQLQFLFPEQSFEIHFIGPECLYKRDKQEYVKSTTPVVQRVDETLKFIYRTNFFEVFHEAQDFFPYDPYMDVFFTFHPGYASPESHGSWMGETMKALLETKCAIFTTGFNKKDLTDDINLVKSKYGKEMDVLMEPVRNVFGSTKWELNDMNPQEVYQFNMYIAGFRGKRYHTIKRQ

For `C=CC1=C(C)C2=Cc3c(C=C)c(C)c4[n]3[Fe]([Cl])[n]3c(c(C)c(CCC(=O)O)c3=CC3=NC(=C4)C(C)=C3CCC(=O)O)=CC1=N2` [hemin], the Kd (Mss51 [1]) was 324 ± 74 nM and the Kd (Mss51 [2]) was about 445 nM.
